According to the NIST ThermoML archive (doi:10.1021/acs.jced.6b00169):

Settings: Fluid (supercritical or subcritical phases), isochoric method

FC(F)(F)/C=C\C(F)(F)F [(Z)-1,1,1,4,4,4-hexafluorobut-2-ene]
Settings | mass density [kg/m3]
444.5 K, 2907.5 kPa | 532.1
444.5 K, 2918.3 kPa | 589.2
445.48 K, 2948.7 kPa | 410.1
445.48 K, 2955 kPa | 451.8
445.49 K, 2960.5 kPa | 496.8
445.49 K, 2967.6 kPa | 556.1
445.49 K, 2979 kPa | 589.2
445.5 K, 2963.5 kPa | 532.1
446.47 K, 2992.8 kPa | 410.1
446.47 K, 3039.9 kPa | 589.2
446.48 K, 3003.8 kPa | 451.8
446.49 K, 3019.2 kPa | 532.1
446.49 K, 3024.7 kPa | 556
446.5 K, 3013.3 kPa | 496.8
447.47 K, 3036.6 kPa | 410.1
447.49 K, 3052.3 kPa | 451.8
447.49 K, 3075.5 kPa | 532
447.49 K, 3102.7 kPa | 589.1
447.5 K, 3083 kPa | 556
447.51 K, 3065.9 kPa | 496.8
448.47 K, 3080.1 kPa | 410.1
448.48 K, 3099.7 kPa | 451.7
448.49 K, 3131.1 kPa | 532
448.49 K, 3165.1 kPa | 589.1
448.5 K, 3117.9 kPa | 496.7
448.5 K, 3140.9 kPa | 556
449.46 K, 3123.1 kPa | 410.1
449.48 K, 3147.7 kPa | 451.7
449.49 K, 3187.7 kPa | 532
449.5 K, 3170.6 kPa | 496.7
449.5 K, 3200.1 kPa | 556
449.5 K, 3229.7 kPa | 589.1
450.46 K, 3166.1 kPa | 410
450.48 K, 3195.5 kPa | 451.7
450.5 K, 3223.3 kPa | 496.7
450.5 K, 3259.2 kPa | 555.9
450.5 K, 3293.6 kPa | 589
450.51 K, 3244.9 kPa | 532
451.47 K, 3209.5 kPa | 410
451.48 K, 3243 kPa | 451.7
451.49 K, 3357.7 kPa | 589
451.5 K, 3275.9 kPa | 496.7
451.5 K, 3318.3 kPa | 555.9
451.51 K, 3300.8 kPa | 531.9
452.47 K, 3252.2 kPa | 410
452.48 K, 3290.8 kPa | 451.7
452.49 K, 3328.2 kPa | 496.6
452.49 K, 3378.2 kPa | 555.9
452.49 K, 3422.9 kPa | 589
452.5 K, 3358.3 kPa | 531.9
453.47 K, 3294.8 kPa | 410
453.48 K, 3200.2 kPa | 348.3
453.49 K, 3338.4 kPa | 451.6
453.49 K, 3381.2 kPa | 496.6
453.49 K, 4021.4 kPa | 734.4
453.49 K, 9923.8 kPa | 962.6
453.5 K, 1586.1 kPa | 87.6
453.5 K, 2978.8 kPa | 261.1
453.5 K, 3415.5 kPa | 531.9
453.5 K, 3438.5 kPa | 555.9
453.5 K, 3477.4 kPa | 589
453.5 K, 3489.4 kPa | 589
453.5 K, 3654.8 kPa | 659.5
453.5 K, 4584 kPa | 789.8
453.5 K, 6552.2 kPa | 883.1
453.51 K, 2439 kPa | 167
453.51 K, 3355.4 kPa | 473.8
453.51 K, 3423.1 kPa | 534.1
453.52 K, 3308.4 kPa | 416.3
463.47 K, 3811.6 kPa | 451.7
463.48 K, 3548.1 kPa | 348.1
463.49 K, 5796.3 kPa | 789.4
463.5 K, 1644.5 kPa | 87.5
463.5 K, 3221.4 kPa | 261
463.5 K, 4145.4 kPa | 588.7
463.5 K, 4465.6 kPa | 659.2
463.5 K, 8195.5 kPa | 882.7
463.51 K, 2573 kPa | 166.9
463.51 K, 3856.7 kPa | 473.6
463.51 K, 4003.3 kPa | 533.8
463.52 K, 3741 kPa | 416.1
463.84 K, 5039.9 kPa | 734
473.46 K, 4282.9 kPa | 451.5
473.49 K, 3889.2 kPa | 347.9
473.49 K, 5297.9 kPa | 658.9
473.49 K, 6084.9 kPa | 733.7
473.49 K, 7031.2 kPa | 789.1
473.5 K, 1702.6 kPa | 87.5
473.5 K, 3458.3 kPa | 260.9
473.5 K, 4828.4 kPa | 588.4
473.5 K, 9855 kPa | 882.3
473.51 K, 2705 kPa | 166.8
473.51 K, 4169.1 kPa | 416
473.51 K, 4592.6 kPa | 533.6
473.52 K, 4360 kPa | 473.3
483.45 K, 4753 kPa | 451.3
483.48 K, 8280.1 kPa | 788.7
483.49 K, 4225.7 kPa | 347.8
483.49 K, 6143.2 kPa | 658.6
483.5 K, 1760.4 kPa | 87.5
483.5 K, 3690.6 kPa | 260.8
483.5 K, 4863.2 kPa | 473.1
483.5 K, 5186.3 kPa | 533.3
483.5 K, 5522.5 kPa | 588.1
483.51 K, 2834.3 kPa | 166.8
483.51 K, 4596.7 kPa | 415.8
483.51 K, 7145.4 kPa | 733.3
493.49 K, 4559.3 kPa | 347.6
493.5 K, 3920 kPa | 260.6
493.5 K, 6223.9 kPa | 587.8
493.51 K, 1817.2 kPa | 87.4
493.51 K, 2962 kPa | 166.7
493.51 K, 5368 kPa | 472.9
503.5 K, 4890.2 kPa | 347.4
503.51 K, 6930.9 kPa | 587.6
